Test results as given in the NIST ThermoML archive (doi:10.1016/j.jct.2016.03.030).

Test: xn = mol fraction of the nth substance listed
Conditions: 100 kPa, Liquid; for viscosity: Falling or rolling sphere viscometry; for mass density: Vibrating tube method

CCCC[N+]1(C)CCOCC1.[Br-] [4-butyl-4-methylmorpholinium bromide] + O
Conditions	mass density [kg/m3]	viscosity [mPa·s]
298.15 K, x1 = 0.0017	1002.2	–
298.15 K, x1 = 0.0033	1007.1	–
298.15 K, x1 = 0.0066	1016.8	–
298.15 K, x1 = 0.0088	1022.9	–
298.15 K, x1 = 0.0167	1043.3	–
298.15 K, x1 = 0.034	1081.4	–
298.15 K, x1 = 0.0363	1086	1.96
298.15 K, x1 = 0.0601	1125.3	3.204
298.15 K, x1 = 0.0988	1170.8	6.179
298.15 K, x1 = 0.1242	1192	9.576
298.15 K, x1 = 0.154	1211.4	15.07
298.15 K, x1 = 0.2027	1234.7	32.61
298.15 K, x1 = 0.2383	1247.4	57.4
298.15 K, x1 = 0.2569	1252.8	81.23
298.15 K, x1 = 0.3007	1263.9	159.1
303.15 K, x1 = 0.0017	1000.7	–
303.15 K, x1 = 0.0033	1005.6	–
303.15 K, x1 = 0.0066	1015.2	–
303.15 K, x1 = 0.0088	1021.3	–
303.15 K, x1 = 0.0167	1041.5	–
303.15 K, x1 = 0.034	1079.1	–
303.15 K, x1 = 0.0363	1083.7	1.715
303.15 K, x1 = 0.0601	1122.6	2.745
303.15 K, x1 = 0.0988	1167.7	5.16
303.15 K, x1 = 0.1242	1188.7	7.888
303.15 K, x1 = 0.154	1208.1	12.19
303.15 K, x1 = 0.2027	1231.3	25.31
303.15 K, x1 = 0.2383	1244	42.75
303.15 K, x1 = 0.2569	1249.4	60.27
303.15 K, x1 = 0.3007	1260.5	113.5
308.15 K, x1 = 0.0017	999.1	–
308.15 K, x1 = 0.0033	1003.9	–
308.15 K, x1 = 0.0066	1013.4	–
308.15 K, x1 = 0.0088	1019.5	–
308.15 K, x1 = 0.0167	1039.5	–
308.15 K, x1 = 0.034	1076.7	–
308.15 K, x1 = 0.0363	1081.3	1.5
308.15 K, x1 = 0.0601	1119.7	2.367
308.15 K, x1 = 0.0988	1164.5	4.353
308.15 K, x1 = 0.1242	1185.4	6.566
308.15 K, x1 = 0.154	1204.7	9.969
308.15 K, x1 = 0.2027	1227.9	20
308.15 K, x1 = 0.2383	1240.7	32.82
308.15 K, x1 = 0.2569	1246.1	45.77
308.15 K, x1 = 0.3007	1257.2	82.89
313.15 K, x1 = 0.0017	997.2	–
313.15 K, x1 = 0.0033	1002	–
313.15 K, x1 = 0.0066	1011.4	–
313.15 K, x1 = 0.0088	1017.4	–
313.15 K, x1 = 0.0167	1037.3	–
313.15 K, x1 = 0.034	1074.2	–
313.15 K, x1 = 0.0363	1078.7	1.323
313.15 K, x1 = 0.0601	1116.8	2.061
313.15 K, x1 = 0.0988	1161.3	3.716
313.15 K, x1 = 0.1242	1182.1	5.497
313.15 K, x1 = 0.154	1201.3	8.279
313.15 K, x1 = 0.2027	1224.5	16.07
313.15 K, x1 = 0.2383	1237.3	25.69
313.15 K, x1 = 0.2569	1242.7	35.46
313.15 K, x1 = 0.3007	1253.9	62.18
318.15 K, x1 = 0.0017	995.2	–
318.15 K, x1 = 0.0033	999.9	–
318.15 K, x1 = 0.0066	1009.3	–
318.15 K, x1 = 0.0088	1015.3	–
318.15 K, x1 = 0.0167	1034.9	–
318.15 K, x1 = 0.034	1071.5	–
318.15 K, x1 = 0.0363	1076	1.175
318.15 K, x1 = 0.0601	1113.8	1.81
318.15 K, x1 = 0.0988	1158	3.204
318.15 K, x1 = 0.1242	1178.7	4.65
318.15 K, x1 = 0.154	1197.9	6.951
318.15 K, x1 = 0.2027	1221.1	13.12
318.15 K, x1 = 0.2383	1233.9	20.44
318.15 K, x1 = 0.2569	1239.3	28.04
318.15 K, x1 = 0.3007	1250.6	47.76
323.15 K, x1 = 0.0017	993	–
323.15 K, x1 = 0.0033	997.7	–
323.15 K, x1 = 0.0066	1007	–
323.15 K, x1 = 0.0088	1012.9	–
323.15 K, x1 = 0.0167	1032.5	–
323.15 K, x1 = 0.034	1068.8	–
323.15 K, x1 = 0.0363	1073.2	1.039
323.15 K, x1 = 0.0601	1110.8	1.578
323.15 K, x1 = 0.0988	1154.6	2.745
323.15 K, x1 = 0.1242	1175.3	3.912
323.15 K, x1 = 0.154	1194.4	5.805
323.15 K, x1 = 0.2027	1217.7	10.72
323.15 K, x1 = 0.2383	1230.5	16.36
323.15 K, x1 = 0.2569	1235.9	22.35
323.15 K, x1 = 0.3007	1247.2	36.9
328.15 K, x1 = 0.0017	990.6	–
328.15 K, x1 = 0.0033	995.3	–
328.15 K, x1 = 0.0066	1004.5	–
328.15 K, x1 = 0.0088	1010.4	–
328.15 K, x1 = 0.0167	1029.8	–
328.15 K, x1 = 0.034	1065.9	–
328.15 K, x1 = 0.0363	1070.1	0.923
328.15 K, x1 = 0.0601	1107.6	1.387
328.15 K, x1 = 0.0988	1151.2	2.377
328.15 K, x1 = 0.1242	1171.8	3.323
328.15 K, x1 = 0.154	1191	4.888
328.15 K, x1 = 0.2027	1214.3	8.882
328.15 K, x1 = 0.2383	1227.1	13.28
328.15 K, x1 = 0.2569	1232.5	18.01
328.15 K, x1 = 0.3007	1243.9	29.03
333.15 K, x1 = 0.0017	988.1	–
333.15 K, x1 = 0.0033	992.7	–
333.15 K, x1 = 0.0066	1001.9	–
333.15 K, x1 = 0.0088	1007.8	–
333.15 K, x1 = 0.0167	1027.1	–
333.15 K, x1 = 0.034	1062.9	–
333.15 K, x1 = 0.0363	1067.3	0.83
333.15 K, x1 = 0.0601	1104.4	1.233
333.15 K, x1 = 0.0988	1147.8	2.082
333.15 K, x1 = 0.1242	1168.4	2.867
333.15 K, x1 = 0.154	1187.5	4.16
333.15 K, x1 = 0.2027	1210.8	7.465
333.15 K, x1 = 0.2383	1223.7	10.98
333.15 K, x1 = 0.2569	1229.1	14.86
333.15 K, x1 = 0.3007	1240.5	23.47
338.15 K, x1 = 0.0017	985.4	–
338.15 K, x1 = 0.0033	990	–
338.15 K, x1 = 0.0066	999.2	–
338.15 K, x1 = 0.0088	1005	–
338.15 K, x1 = 0.0167	1024.2	–
338.15 K, x1 = 0.034	1059.9	–
338.15 K, x1 = 0.0363	1064.3	0.751
338.15 K, x1 = 0.0601	1101.1	1.106
338.15 K, x1 = 0.0988	1144.3	1.836
338.15 K, x1 = 0.1242	1164.8	2.502
338.15 K, x1 = 0.154	1184	3.568
338.15 K, x1 = 0.2027	1207.3	6.337
338.15 K, x1 = 0.2383	1220.3	9.093
338.15 K, x1 = 0.2569	1225.8	12.32
338.15 K, x1 = 0.3007	1237.2	19.19
343.15 K, x1 = 0.0017	982.6	–
343.15 K, x1 = 0.0033	987.2	–
343.15 K, x1 = 0.0066	996.3	–
343.15 K, x1 = 0.0088	1002.1	–
343.15 K, x1 = 0.0167	1021.2	–
343.15 K, x1 = 0.034	1056.7	–
343.15 K, x1 = 0.0363	1061.1	0.685
343.15 K, x1 = 0.0601	1097.5	0.992
343.15 K, x1 = 0.0988	1140.8	1.633
343.15 K, x1 = 0.1242	1161.3	2.288
343.15 K, x1 = 0.154	1180.4	3.149
343.15 K, x1 = 0.2027	1203.8	5.442
343.15 K, x1 = 0.2383	1216.8	7.452
343.15 K, x1 = 0.2569	1222.4	10.42
343.15 K, x1 = 0.3007	1233.8	15.92
